Test results taken from patent publication US20210228463A1, “COMPOSITION FOR FAT FORMATION INHIBITION AND BODY FAT REDUCTION, CONTAINING HYDRANGENOL AS ACTIVE INGREDIENT” (COSMAX BIO CO., LTD., priority 2019, published 2021).

Experiments:
forkhead box 01 (FoxO1) = experiment: Western blotting of p-FOXO1 in adipocytes; format: cell-based; settings: 3T3-L1 differentiated for 10 days, hydrangenol 2.5 ug/ml, 24 hours, FIG. 3
Experimental: The mechanism of reducing triglyceride in adipocytes was examined for the hydrangenol-containing hydrangea (Hydrangea serrata) and hydrangenol. A pre-adipocyte 3T3-L1 was differentiated for 10 days and treated with hydrangea (Hydrangea serrata) (25 ug/ml) and hydrangenol (2.5 ug/ml) for 24 hours, respectively. Thereafter, the cells were lysed using a modified LIPA buffer, and each 20 ug thereof was used for analysis. p-mTOR(ab109268, Abcam), p-FOXO1(9461S, Cell Signaling), PPARγ(sc-7273, Santa Cruz), and β-actin(A5316, Sigma) primary antibodies were used for analysis, respectively.

white adipocytes = experiment: Adipocyte size-reducing effects of HG; format: in vivo, mice; settings: epididymal fat, HG administered; FIG. 16
Experimental: To analyze in vivo anti-obesity efficacy of HG, animal models of obesity were prepared. 8-week-old male C57BL/6N mice (SPF grade, 20±2 g, Orient Bio) were set into 7 groups as follows, and 10 mice per each group were tested: as normal control groups, normal mice (con) with no high fat diet and no administration, and obese mice (HFD) with induction of obesity by 30% high fat diet and no administration, and as a positive control group, obese mice with oral administration of orlistat which is an anti-obesity agent. As experimental groups, obese mice with oral administration of HG of 20 mg/kg, 40 mg/kg, or 80 mg/kg, and normal mice with oral administration of HG of 80 mg/kg were used. Mice were administered with HG at the same time with induction of obesity, and HG was administered for 5 days per week for 12 weeks. A dark: light cycle was maintained at intervals of 12 hours: 12 hours, and mice were allowed to free access to water.
For histological analysis, the epididymal fat tissues of mice were fixed in 4% paraformalin. Dehydration was performed several times through graded alcohol series and washing, and each tissue was embedded in paraffin. Each tissue section was cut at a thickness of 4 μm, and stained with hematoxylin and eosin. In order to examine the size of white adipocytes, the adipocyte area of each section was measured with cellSence software (Olympus Co., USA). […]

[1] = Body weight- and fat-reducing effects of WHS in obese mice; format: in vivo; settings: obese mice (HFD)
Experimental: To analyze in vivo anti-obesity efficacy of WHS, animal models of obesity were first prepared. 8-week-old male C57BL/6N mice (specific-pathogen-free (SPF) grade, 20±2 g, Orient Bio) were set into 7 groups as follows, and 10 mice per each group were tested: as normal control groups, normal mice (con) with no high fat diet and no administration, and obese mice (HFD) with induction of obesity by 30% high fat diet and no administration, and as a positive control group, obese mice with oral administration of orlistat which is an anti-obesity agent. As experimental groups, obese mice with oral administration of WHS of 75 mg/kg, 150 mg/kg, or 300 mg/kg, and normal mice with oral administration of WHS of 300 mg/kg were used. Further, experiments were performed by dividing mice into those which were administered with WHS for 12 weeks at the same time with induction of obesity, and those which were administered with WHS after induction of obesity for 10 weeks. WHS was orally administered for 5 days per week during the administration period. A dark: light cycle was maintained at intervals of 12 hours: 12 hours, and mice were allowed to free access to water. […] In addition, images of a fat distribution and body fat contents of mice of each experimental group were measured by dual-energy X-ray absorptiometry in the last week of the animal test. […]

| Structure (SMILES) | phosphorylation of forkhead box 01 (FoxO1) (forkhead box 01 (FoxO1)) | adipocyte size (white adipocytes) | changes in the body weight ([1]; oral administration at the same time with induction of obesity (12 weeks) or after induction of obesity (10 weeks), FIGS. 4 and 5) | body fat (dual-energy X-ray absorptiometry, fat weight) ([1]; oral administration at the same time with or after induction of obesity, FIGS. 6, 7, 8, and 9) |
| --- | --- | --- | --- | --- |
| O=C1OC(c2ccc(O)cc2)Cc2cccc(O)c21 (stereo not shown) [HG, 8-hydroxy-3-(4-hydroxyphenyl)-3,4-dihydroisochromen-1-one] | increase | reduced | – | – |
| CCCCCCCCCCC[C@@H](C[C@@H]1OC(=O)[C@H]1CCCCCC)OC(=O)[C@H](CC(C)C)NC=O [Orlistat, orlistat] | – | – | body weight-reducing effects were observed | decreased |
